Where “and” joins values, the source holds several entries; their conditions need not be identical. Equal values may be shown once.
Legend:
[1] = test system: white spot syndrome virus (WSSV); experiment: Pre-exposure (pre-treatment) of larvae to compound before WSSV infection; format: in vivo, Litopenaeus vannamei; details: for change in copy number of the viral genome, pre-exposure vs virus alone: larvae exposed up to 8 h prior to WSSV infection, 10 mg/L; for time to which shrimp death was delayed: pre-exposure 10 mg/L, untreated 100% mortality by 72 h
Experimental: For pre-treatment, C2/C7 (final concentration of 10 mg/L) was applied to shrimp larvae for 1, 4, and 8 h, followed by addition of WSSV (while the coumarin compounds were simultaneously removed) at a final viral titer of 1.6 × 10^5 copies/µL. The surviving shrimps were euthanized with MS-222 and frozen at −80 °C until being processed. The copy number of viral genome in samples was quantified by RT-qPCR.

[2] = test system: white spot syndrome virus (WSSV); experiment: Anti-WSSV activity in shrimp larvae, co-incubation, copy number of viral genome by RT-qPCR; format: in vivo, Litopenaeus vannamei; details: for copy number of the viral genome in sick or dead shrimp homogenates: 24, 48 and 72 hpi, up to 10 mg/L; for inhibitory efficiency on WSSV replication: six-point dose-response, viral genome copy number in larvae
[3] = Solubility / precipitation in aquacultural water; format: physicochemical; details: for lowest precipitation concentration / lowest precipitation concentration (bracketed value in LC50 48 h column) / lowest precipitation concentration (bracketed value in LC50 72 h column): test range 0.4~100 mg/L, aquacultural water, LC50 NONE; for solubility in aquacultural water: tested concentration 16 mg/L, 28 °C
Experimental: Prior to evaluation of the anti-WSSV activity of coumarins, the safety doses for larvae needed to be determined. […] In contrast, the electron-withdrawing group was more toxic than the electron-donating group, with the LC50 of A5‒A8 being <5 mg/L at 72 h. […] Based on preliminary analysis of the structure-activity relationship (SAR) of similar spatial structures with different substituents of electron-donating and electron-withdrawing groups to coumarins A1, B1, and C1, we considered that […] of compounds; this provides a basis for further research.
All conventional reagents and solvents are purchased directly from commercial companies and no further purification is required. Organic solvents were purchased from Sinopharm chemical reagent Co., Ltd. and purified by distillation and moisture was excluded from the glass apparatus using CaCl2 drying tubes. Throughout this study, silica gel H (200–300 mesh; Qingdao Marine Chemical Factory, Qingdao, China) was used for the column chromatography. For thin layer chromatographic (TLC) plates, Silica gel (GF254) (Qingdao Marine Chemical Factory, Qingdao, China) were used for thin layer chromatographic (TLC) analysis, and all of the spots and bands were detected by UV irradiation (254, 365 nm). The intermediates and products were characterized by electrospray ionization mass spectrometry (TripleTOF5600þ; AB SCIEX Pte. Ltd., Boston, MA, USA), ^1H NMR and ^13C NMR (Bruker AM500 spectrometer; Bruker Corporation, Berne, Switzerland). The derivatives were dissolved in 100% dimethyl sulfoxide (DMSO; Beyotime Biotechnology, Haimen, China), stored at 4 °C prior to antiviral evaluation, and used within 6 months. For solubility, the stock solutions, at a concentration of 50 mg/mL, were sonicated for approximately 10 min to ensure that the derivatives were fully dissolved and mixed.

[4] = WSSV-infected larvae, copy number of viral genome, 72 h, 95% CI in brackets

| Compound | change in copy number of the viral genome, pre-exposure vs virus alone [1] | time to which shrimp death was delayed [1] [hpi] | copy number of the viral genome in sick or dead shrimp homogenates [2] | EC50 (mg/L; 95% CI), median effective concentration [2, 4] | MAR (%), maximum antiviral response ([2]; WSSV-infected larvae, viral genome copy number normalized to no treatment, low value = strong inhibition, mean ± SD) [%] | inhibitory efficiency on WSSV replication [2] | lowest precipitation concentration [3] | lowest precipitation concentration (bracketed value in LC50 48 h column) [3] | lowest precipitation concentration (bracketed value in LC50 72 h column) [3] | solubility in aquacultural water [3] | EC50 ([2]; Whispovirus xiabaidian, 72 h, read-out: EC50 (mg/L; 95% CI), median effective concentration, WSSV-infected larvae, copy number of viral genome, 72 h, 95% CI in brackets) [mg/L] |
| --- | --- | --- | --- | --- | --- | --- | --- | --- | --- | --- | --- |
| 2-amino-4-(4-chlorophenyl)-5-oxo-4H,5H-pyrano[3,2-c]chromene-3-carbonitrile [C7] | slight changes | 96 | down-regulated | < 10 mg/L and 05.727 (5.069~6.577) mg/L | 03.154 ± 1.157 | exceeded 90% | NONE (16) mg/L | NONE (16) mg/L | NONE (16) mg/L | insoluble |  |
| Cc1ccc(C2C(C#N)=C(N)Oc3c2c(=O)oc2ccccc32)cc1 (centres unmarked) [C2, 2-amino-5-oxo-4-(p-tolyl)-4H,5H-pyrano[3,2-c]chromene-3-carbonitrile] | slight changes | 96 | down-regulated | 05.993 (5.327~6.851) mg/L |  | exceeded 90% | NONE (16) mg/L | NONE (16) mg/L | NONE (16) mg/L | insoluble | < 10 |
